Results on 47 compounds are retold here after patent US20260053861A1, “CELL COMPOSITIONS AND METHODS OF USING THE SAME” (THE REGENTS OF THE UNIVERSITY OF CALIFORNIA, priority 2022, published 2026).

Where a name gives a salt, the structure may show the parent alone.

The subject of one test is hPSC-SCs.
Details: not given
In the case of `C[C@]12N[C@H](Cc3ccccc31)c1ccccc12` [Dizocilpine maleate], the z.score.t was −0.1538. The compound `COc1c2c(nc3ccccc13)OC(C(C)(O)CO)C2` (centres unmarked) [Dubinidine] displayed a z.score.t of 0.6554. Still for that read-out and setting: the same measure for `CC[N+](C)(C)c1cccc(O)c1` [Edrophonium chloride]: 0.7913; for `C[C@]12CC[C@H](O)C[C@@H]1CC[C@@H]1[C@@H]2CC[C@]2(C)C(=O)CC[C@@H]12` [Epiandrosterone]: 1.457; for `C[C@]12C[C@H]3S[C@H]3C[C@@H]1CC[C@@H]1[C@@H]2CC[C@]2(C)[C@@H](O)CC[C@@H]12` [Epitiostanol]: 0.1686.

Turning to `CC[C@]12CCCN3CCc4c(n(c5ccccc45)[C@](O)(C(=O)OC)C1)[C@@H]32` [Epivincamine], the z.score.t was −0.2486. `CC(C)C[C@H]1C(=O)N2CCC[C@H]2[C@]2(O)O[C@](NC(=O)[C@@H]3C=C4c5cccc6[nH]cc(c56)C[C@H]4N(C)C3)(C(C)C)C(=O)N12` [Ergocryptine-alpha] had a z.score.t of 0.495. Still for that read-out and setting: with `O=c1ccc2cc(O[C@@H]3O[C@H](CO)[C@@H](O)[C@H](O)[C@H]3O)c(O)cc2o1` [Esculin Hydrate] the figure was 1.053; with `CNC(=O)Oc1ccc2c(c1)[C@]1(C)CCN(C)[C@@H]1N2C.CNC(=O)Oc1ccc2c(c1)[C@]1(C)CCN(C)[C@@H]1N2C.O=S(=O)(O)O` [Eserine sulfate, physostigmine sulfate], −0.3526.

The test is the same for the next values; noted with them: HTS viability of hPSC-SCs in the presence of 30 mM glucose; Prestwick library; Table S4.
For `CC[C@H]1OC(=O)[C@H](C)[C@@H](O[C@H]2C[C@@](C)(OC)[C@@H](O)[C@H](C)O2)[C@H](C)[C@@H](O[C@@H]2O[C@H](C)C[C@H](N(C)C)[C@H]2O)[C@](C)(O)C[C@@H](C)[C@@H]2N[C@@H](COCCOC)O[C@H]([C@H]2C)[C@]1(C)O` [Dirithromycin], the z.score.t was found to be 0.3231. Turning to `CC(C)N(CCC(C(N)=O)(c1ccccc1)c1ccccn1)C(C)C` (centres unmarked) [Disopyramide], the z.score.t is 0.4205. As for `CCN(CC)C(=S)SSC(=S)N(CC)CC` [Disulfiram], the z.score.t is reported as −1.291. Consider `CC(CCc1ccc(O)cc1)NCCc1ccc(O)c(O)c1` (centres unmarked) [Dobutamine hydrochloride], for which the z.score.t is given as −0.3731.

Regarding `O=c1[nH]c2ccccc2n1CCCN1CCC(n2c(=O)[nH]c3cc(Cl)ccc32)CC1` [Domperidone], the z.score.t is 0.006455.

Turning to `CCN[C@H]1C[C@H](C)S(=O)(=O)c2sc(S(N)(=O)=O)cc21` [Dorzolamide hydrochloride], the z.score.t is given as −0.7873. Regarding `CN(C)CC/C=C1\c2ccccc2CSc2ccccc21` [Dosulepin hydrochloride], the z.score.t is recorded as −0.8478. Same read-out and setting: the same measure for `COc1cc2nc(N3CCN(C(=O)C4COc5ccccc5O4)CC3)nc(N)c2cc1OC` (centres unmarked) [Doxazosin mesylate]: −0.8683; for `CN(C)CCC=C1c2ccccc2COc2ccccc21` [Doxepin hydrochloride]: 0.1594; for `COc1cccc2c1C(=O)c1c(O)c3c(c(O)c1C2=O)C[C@@](O)(C(=O)CO)C[C@@H]3O[C@H]1C[C@H](N)[C@H](O)[C@H](C)O1` [Doxorubicin hydrochloride]: −1.209. Consider `CCO.C[C@H]1c2cccc(O)c2C(O)=C2C(=O)[C@]3(O)C(O)=C(C(N)=O)C(=O)[C@@H](N(C)C)[C@@H]3[C@@H](O)[C@@H]21.C[C@H]1c2cccc(O)c2C(O)=C2C(=O)[C@]3(O)C(O)=C(C(N)=O)C(=O)[C@@H](N(C)C)[C@@H]3[C@@H](O)[C@@H]21.Cl.Cl.O` [Doxycycline hyclate], for which the z.score.t was 1.148. In the case of `CN(C)CCOC(C)(c1ccccc1)c1ccccn1` (centres unmarked) [Doxylamine succinate], the z.score.t is recorded as −0.1538.

For the compound `CCN(CC)CCOC(=O)C(c1ccccc1)C1CCCCC1` (centres unmarked) [Drofenine hydrochloride], the z.score.t was −0.1913. Still for that read-out and setting: with `O=C(CCCN1CC=C(n2c(=O)[nH]c3ccccc32)CC1)c1ccc(F)cc1` [Droperidol] the figure was 1.197; with `CCCCOc1ccc(C(=O)CCN2CCCCC2)cc1` [Dyclonine hydrochloride], −0.6492; with `CC(=O)[C@H]1CC[C@H]2[C@@H]3C=CC4=CC(=O)CC[C@@]4(C)[C@@H]3CC[C@]12C` [Dydrogesterone], 0.81. On the same count and under the same terms, the same measure for `O=c1c2ccccc2[se]n1-c1ccccc1` [Ebselen]: 0.3459. Regarding `Clc1ccc(COC(Cn2ccnc2)c2ccc(Cl)cc2Cl)cc1` (centres unmarked) [Econazole nitrate], the z.score.t is listed as −1.834. Same read-out and setting: with `Cc1c2ccncc2c(C)c2c1[nH]c1ccccc12` [Ellipticine] the figure was −1.949; with `CC[C@H]1CN2CCc3cc(OC)c(OC)cc3[C@@H]2C[C@@H]1C[C@H]1NCCc2cc(OC)c(OC)cc21` [Emetine dihydrochloride], −1.991. Consider `CCOC(=O)[C@H](CCc1ccccc1)N[C@@H](C)C(=O)N1CCC[C@H]1C(=O)O` [Enalapril maleate], for which the z.score.t was −0.8991. On the same count and under the same terms, the same measure for `C=CCOC(Cn1ccnc1)c1ccc(Cl)cc1Cl` (centres unmarked) [Enilconazole]: −1.535; for `Oc1cc(O)c2c(c1)O[C@H](c1ccc(O)c(O)c1)[C@H](O)C2` [Epicatechin-(−)]: −0.411. The same measure, in the same setting: the same measure for `COc1cc(C)nc(-n2nc(C)cc2OC)n1` [Epirizole]: 1.191; for `C[C@]12CC[C@H]3C(=CCc4cc(O)ccc43)[C@@H]1CCC2=O` [Equilin]: 0.9352; for `CC[C@H]1OC(=O)[C@H](C)[C@@H](O[C@H]2C[C@@](C)(OC)[C@@H](O)[C@H](C)O2)[C@H](C)[C@@H](O[C@@H]2O[C@H](C)C[C@H](N(C)C)[C@H]2O)[C@](C)(O)C[C@@H](C)C(=O)[C@H](C)[C@@H](O)[C@]1(C)O` [Erythromycin]: −0.09426. Still for that read-out and setting: with `O=c1ccc2cc(O)c(O)cc2o1` [Esculetin] the figure was −0.7376. With `C[C@]12CC[C@@H]3c4ccc(O)cc4CC[C@H]3[C@@H]1CC[C@@H]2O` [Estradiol-17 beta], the z.score.t is recorded as −0.7953.

For `C[C@]12CC[C@@H]3c4ccc(O)cc4CC[C@H]3[C@@H]1C[C@@H](O)[C@@H]2O` [Estriol], the z.score.t was found to be 0.7296. `C[C@]12CC[C@@H]3c4ccc(O)cc4CC[C@H]3[C@@H]1CCC2=O` [Estrone]: the z.score.t stood at 1.784. For the compound `C[C@]12CC[C@@H]3c4ccc(OS(=O)(=O)O)cc4CC[C@H]3[C@@H]1CCC2=O` [Estropipate], the z.score.t was 1.178.

With `O=C(Cn1ccnc1[N+](=O)[O-])NCCO` [Etanidazole], the z.score.t is 0.1469. Consider `C=C(CC)C(=O)c1ccc(OCC(=O)O)c(Cl)c1Cl` [Ethacrynic acid], for which the z.score.t was determined as 1.53. Same read-out and setting: with `CC[C@@H](CO)NCCN[C@@H](CC)CO` [Ethambutol dihydrochloride] the figure was 1.13; with `CCN(CC)C(=O)c1ccc(O)c(OC)c1` [Ethamivan], 1.211. Same read-out and setting: the same measure for `O=S(=O)(O)c1cc(O)ccc1O` [Ethamsylate]: −0.4549; for `CCOc1ccc(Cc2nccc3cc(OCC)c(OCC)cc23)cc1OCC` [Ethaverine hydrochloride]: 0.453.

For the compound `CCc1cc(C(N)=S)ccn1` [Ethionamide], the z.score.t is reported as 0.3024.
